Test: Part B: safety, treatment-emergent adverse events, DLT and MTD
Type: in vivo
Excerpt: For the purpose of the present invention, the adverse events were graded as per the National Cancer Institute's, Common Terminology Criteria for Adverse Events (NCI-CTCAE) Version 4.03 and Version 5.0 (https://evs.nci.nih.gov/ftp1/CTCAE/About.html). It is a descriptive terminology which can be utilized for Adverse Event (AE) reporting.
AEs were graded as per NCI-CTCAE Version 5.0. In the present study, along with others most common AEs for which patients were monitored were thrombocytopenia, neutropenia and anemia, any AE reported by the patient after the completion of AE collection period and considered related to the study drug was reported.
Dose Limiting Toxicity (DLT) is defined as the occurrence of any of the following unless clearly and incontrovertibly related to the underlying disease. The hematological DLTs were defined as per the Phase of CML: • a) Grade 3 or higher, or other non-hematological toxicity, including nausea, vomiting and diarrhea, and refractory to standard antiemetic therapy except alopecia and nail disorders; • b) Missed ≥25% of doses over 28 days due to toxicity in Cycle 1; and • c) Any grade of toxicity requiring dose reduction or discontinuation of IMP within the 28-days DLT assessment period (Cycle 1).
Safety Parameters: Parts B and C: Descriptive summaries were provided for the safety variables collected. Continuous variables were summarized using mean, standard deviation, minimum, median, and maximum. Categorical variables were summarized using frequency counts and percentages. For time-to-event variables, other percentiles were presented. In addition, summaries of AEs by intensity, seriousness, frequency, and relationship to IMP are presented. Adverse events (AE) s were coded using the Medical Dictionary for Regulatory Activities (MedDRA) and summarized by System Organ Class (SOC) and Preferred Term (PT).
In this study, the dose-escalation cohort started with an accelerated titration study design (ATD) and shifted to a 3±3 design when subjects in the preceding ATD cohort experienced either grade 2 or higher adverse events (AEs) or dose-limiting toxicity (DLT) during Cycle 1 that was not clearly and incontrovertibly related to the underlying disease or concomitant medications. The DLT period consisted of 28 days (Cycle 1). Subjects experiencing DLTs were managed with dose delays and/or discontinuation and continued in the study until disease progression. Decisions to advance to a succeeding dose level occurred after the evaluation of safety and tolerability data for a given dose level.
For the cohorts, where the 3±3 design applies, 3 subjects were enrolled initially. If 2 of these subjects experienced a Grade 2 or more toxicity (that was not clearly and incontrovertibly related to the underlying disease or concomitant medications), subsequent cohorts were escalated according to smaller increments. Further, if there were no DLTs in the first 3 subjects, dose escalation to the next higher dose level was allowed to proceed. If 1 of the 3 subjects experienced a DLT, that dose level was expanded to 6 subjects (3 additional subjects were enrolled). If 2 subjects at a given dose level experienced a DLT, the MTD was considered to have been exceeded. The next lower dose level was expanded to 6 subjects, or if 6 subjects had already been enrolled and no more than 1 of the 6 subjects experienced a DLT, then this lower dose level was considered the MTD. Additional subjects were enrolled in dose escalation cohorts for further assessment of safety and efficacy of the compound of Formula 1 at doses that were tolerated (i.e., doses that have <2 DLTs in 6 enrolled subjects or <1 DLT in 3 enrolled subjects). Thus 204 mg was arrived at as MTD. A subject experiencing a DLT was allowed to continue therapy with a reduced dose. Subjects who experienced a DLT and recovered were treated at the next lower dose level until disease progression or other events requiring further dose reduction existed. […]

## Cc1ccc(C(=O)NNC(=O)c2c(C)cccc2Cl)cc1C#Cc1cnc2ccccc2c1 [compound of Formula I, N′-(2-chloro-6-methylbenzoyl)-4-methyl-3-[2-(3-quinolyl)ethynyl]-benzohydrazide]
6 patients, prior 2 TKI treatments
  grade 3 or 4 AEs: 33.4%
6 pts
  AEs leading to permanent discontinuation: 11.3%
10 subjects, dose expansion at 174 mg
  discontinued from the study due to AE: 1 subject
19 patients treated with ponatinib
  grade 3 or 4 AEs: 86.3%
28 patients, 3 or more TKI treatments
  grade 3 or 4 AEs: 80%
41 subjects, dose escalation
  discontinued due to disease progression: 4 subjects
41 subjects, dose escalation (1 each at 48, 126, 174 and 204 mg)
  discontinued due to AEs: 4 subjects
41 subjects, dose escalation cohorts
  discontinued from the study: 11 subjects
Overall (N = 53)
  All TEAEs, Any grade: 51 No of pts
  All TEAEs, Grade 3/4: 34 No of pts
  Amylase increased, Any grade: 5 No of pts
  Amylase increased, Grade 3/4: 4 No of pts
  Anemia, Any grade: 11 No of pts
  Anemia, Grade 3/4: 7 No of pts
  Back pain, Any grade: 7 No of pts
  Back pain, Grade 3/4: 0 No of pts
  Constipation, Any grade: 8 No of pts
  Constipation, Grade 3/4: 0 No of pts
  Cough, Any grade: 11 No of pts
  Cough, Grade 3/4: 0 No of pts
  Death, Grade 3/4: 0 No of pts
  Decreased appetite, Any grade: 6 No of pts
  Decreased appetite, Grade 3/4: 0 No of pts
  Diarrhoea, Any grade: 12 No of pts
  Diarrhoea, Grade 3/4: 1 No of pts
  Fatigue, Any grade: 7 No of pts
  Fatigue, Grade 3/4: 0 No of pts
  Headache, Any grade: 8 No of pts
  Headache, Grade 3/4: 0 No of pts
  Lipase increased, Any grade: 5 No of pts
  Lipase increased, Grade 3/4: 4 No of pts
  Myalgia, Any grade: 7 No of pts
  Myalgia, Grade 3/4: 0 No of pts
  Nasopharyngitis, Any grade: 6 No of pts
  Nasopharyngitis, Grade 3/4: 0 No of pts
  Nausea, Any grade: 8 No of pts
  Nausea, Grade 3/4: 0 No of pts
  Neutropenia, Any grade: 8 No of pts
  Neutropenia, Grade 3/4: 7 No of pts
  Pruritis, Any grade: 6 No of pts
  Pruritis, Grade 3/4: 0 No of pts
  Pyrexia, Any grade: 8 No of pts
  Pyrexia, Grade 3/4: 1 No of pts
  Rhinitis, Any grade: 6 No of pts
  Rhinitis, Grade 3/4: 0 No of pts
  SAEs, Any grade: 20 No of pts
  SAEs, Grade 3/4: 12 No of pts
  TEAEs Leading to drug withdrawal, Any grade: 6 No of pts
  TEAEs Leading to drug withdrawal, Grade 3/4: 2 No of pts
  TEAEs Related to comp of Formula I, Any grade: 35 No of pts
  TEAEs Related to comp of Formula I, Grade 3/4: 14 No of pts
  TEAEs: Dose discontinued and restarted, Any grade: 20 No of pts
  TEAEs: Dose discontinued and restarted, Grade 3/4: 12 No of pts
  TEAEs: Dose modifications, Any grade: 11 No of pts
  TEAEs: Dose modifications, Grade 3/4: 6 No of pts
  Thrombocytopenia, Any grade: 22 No of pts
  Thrombocytopenia, Grade 3/4: 10 No of pts
  Vomiting, Any grade: 7 No of pts
  Vomiting, Grade 3/4: 0 No of pts
Prior Ponatinib (N = 22)
  All TEAEs, Any grade: 22 No of pts
  All TEAEs, Grade 3/4: 19 No of pts
  Amylase increased, Any grade: 3 No of pts
  Amylase increased, Grade 3/4: 2 No of pts
  Anemia, Any grade: 6 No of pts
  Anemia, Grade 3/4: 4 No of pts
  Back pain, Any grade: 3 No of pts
  Back pain, Grade 3/4: 0 No of pts
  Constipation, Any grade: 3 No of pts
  Constipation, Grade 3/4: 0 No of pts
  Cough, Any grade: 5 No of pts
  Cough, Grade 3/4: 0 No of pts
  Death, Any grade: 2 No of pts
  Death, Grade 3/4: 0 No of pts
  Decreased appetite, Any grade: 3 No of pts
  Decreased appetite, Grade 3/4: 0 No of pts
  Diarrhoea, Any grade: 7 No of pts
  Diarrhoea, Grade 3/4: 1 No of pts
  Fatigue, Any grade: 4 No of pts
  Fatigue, Grade 3/4: 0 No of pts
  Headache, Any grade: 4 No of pts
  Headache, Grade 3/4: 0 No of pts
  Lipase increased, Any grade: 2 No of pts
  Lipase increased, Grade 3/4: 2 No of pts
  Myalgia, Any grade: 2 No of pts
  Myalgia, Grade 3/4: 0 No of pts
  Nasopharyngitis, Any grade: 2 No of pts
  Nasopharyngitis, Grade 3/4: 0 No of pts
  Nausea, Any grade: 7 No of pts
  Nausea, Grade 3/4: 0 No of pts
  Neutropenia, Any grade: 3 No of pts
  Neutropenia, Grade 3/4: 2 No of pts
  Pruritis, Any grade: 4 No of pts
  Pruritis, Grade 3/4: 0 No of pts
  Pyrexia, Any grade: 4 No of pts
  Pyrexia, Grade 3/4: 1 No of pts
  Rhinitis, Any grade: 4 No of pts
  Rhinitis, Grade 3/4: 0 No of pts
  SAEs, Any grade: 10 No of pts
  SAEs, Grade 3/4: 7 No of pts
  TEAEs Leading to drug withdrawal, Any grade: 2 No of pts
  TEAEs Leading to drug withdrawal, Grade 3/4: 2 No of pts
  TEAEs Related to comp of Formula I, Any grade: 15 No of pts
  TEAEs Related to comp of Formula I, Grade 3/4: 7 No of pts
  TEAEs: Dose discontinued and restarted, Any grade: 12 No of pts
  TEAEs: Dose discontinued and restarted, Grade 3/4: 7 No of pts
  TEAEs: Dose modifications, Any grade: 8 No of pts
  TEAEs: Dose modifications, Grade 3/4: 4 No of pts
  Thrombocytopenia, Any grade: 7 No of pts
  Thrombocytopenia, Grade 3/4: 3 No of pts
  Vomiting, Any grade: 4 No of pts
  Vomiting, Grade 3/4: 0 No of pts
Any grade
  Cough: 20.8%
  anemia: 20.8%
  diarrhea: 22%
  thrombocytopenia: 41.5%

Reference: patent US20260069584A1, “METHODS OF TREATING CHRONIC MYELOID LEUKEMIA USING THE TYROSINE KINASE INHIBITOR VODOBATINIB” (Sun Pharma Advanced Research Company Ltd., priority 2022, published 2026)
